# In PubChem BioAssay (NCI):
# “And” between values parts separate entries of the source, which are not always exact repeats. Equal values may be shown once.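 In this assay, cells in 96-well plates receive the compound at five concentrations for 48 hours. Endpoints are linearly interpolated between the surrounding concentrations. The concentration for 50% growth inhibition is given as GI50. The concentration for full growth arrest is given as TGI.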
# Columns and labels:
# Assay in all cases: growth of human tumour cells (NCI), 48 h
# [1] = test system: TK-10 renal
# [2] = test system: 786-0 renal
# [3] = test system: SNB-75 CNS
# [4] = test system: PC-3 prostate
# [5] = test system: CCRF-CEM leukemia
# [6] = test system: NCI/ADR-RES ovarian
# [7] = test system: OVCAR-5 ovarian
# [8] = test system: MALME-3M melanoma
# [9] = test system: MOLT-4 leukemia
# [10] = test system: NCI-H460 lung
Compound,GI50 [1],TGI [1],GI50 [2],TGI [2],GI50 [3],TGI [3],GI50 [4],TGI [4],GI50 [5],TGI [5],GI50 [6],TGI [6],GI50 [7],TGI [7],GI50 [8],TGI [8],GI50 [9],TGI [9],GI50 [10],TGI [10]
CCCc1n(Cc2ccc3ccccc3n2)cc[n+]1Cc1ccc2ccccc2n1,2.84 µM,12.7 µM,11.2 µM,24.2 µM,1.46 µM,8.7 µM,1.85 µM,14.7 µM,2.72 µM,28.3 µM,> 100 µM,> 100 µM,3.72 µM,34.2 µM,1.17 µM,7.51 µM,2.89 µM,16.5 µM,2.44 µM,11.5 µM
COc1ccc2nc3cc(Cl)ccc3c(Nc3cc(C(C)C)c(O)cc3C)c2c1,1.75 µM,6.65 µM,1.64 µM,3.05 µM,2.16 µM,7.61 µM,1.7 µM,4.79 µM,2.08 µM,6.63 µM,2.76 µM,8.01 µM,3.03 µM,9.48 µM,1.79 µM,4.4 µM,1.38 µM,4.36 µM,1.71 µM,3.45 µM
COC(=O)c1ccc2c(C(=Nc3ccc(N(C)C(=O)CN4CCN(C)CC4)cc3)c3ccccc3)c(O)[nH]c2c1,4.63 µM and 19.2 µM,23.5 µM and > 100 µM,1.93 µM and 1.47 µM,6.6 µM and 4.64 µM,0.385 µM and 0.32 µM,9.71 µM and 7.71 µM,5.2 µM and 25.6 µM,53.2 µM and > 100 µM,2.56 µM and 2.81 µM,16.7 µM and > 100 µM,14.4 µM and > 32.7 µM,> 100 µM,1.73 µM and 6.75 µM,–,1.37 µM and 1.44 µM,2.94 µM and 3.46 µM,2.21 µM and 2.74 µM,22.1 µM and > 100 µM,2.02 µM and 2.24 µM,4 µM and 4.96 µM
CCc1ccc([O-])c(C=NCCCN(C)CCCN=Cc2cc(C)ccc2[O-])c1.[Co+3].[N-]=[N+]=[N-],29 µg/mL,50 µg/mL,43.1 µg/mL,50 µg/mL,1.38 µg/mL and 10 µg/mL,–,29.5 µg/mL,50 µg/mL,> 150 µg/mL,> 150 µg/mL,50 µg/mL and 47.4 µg/mL,50 µg/mL and 47.4 µg/mL,50 µg/mL and 137 µg/mL,50 µg/mL and > 150 µg/mL,50 µg/mL and 82.6 µg/mL,50 µg/mL and > 150 µg/mL,> 150 µg/mL,> 150 µg/mL,50 µg/mL and > 150 µg/mL,50 µg/mL and > 150 µg/mL
COc1ccc(-c2nc3sccn3c2-c2ccnc(NCCCNS(=O)(=O)c3ccc(F)cc3)n2)cc1,3.92 µM,> 100 µM,5.13 µM,> 100 µM,2.25 µM,6.04 µM,1.74 µM,6.75 µM,1.52 µM,> 100 µM,1.98 µM,6.16 µM,4.59 µM,> 100 µM,2.6 µM,7.86 µM,1.9 µM,7.67 µM,2.78 µM,37.6 µM
CC(=O)C(C=O)C(C)=O.CC(=O)CC(C)=O.CC(=O)CC(C)=O.[Ru],38.9 µM,> 100 µM,37.3 µM,> 100 µM,> 100 µM,> 100 µM,13.2 µM,71.2 µM,5.62 µM,21.8 µM,21.8 µM,95 µM,32.2 µM,> 100 µM,24.6 µM,96.9 µM,28.6 µM,> 100 µM,28.5 µM,> 100 µM
COc1cc(-c2nn(-c3cccc(NC(=O)CCN4CCN(C)CC4)c3)cc2-c2ccncc2)ccc1Cl,3.8 µM,14.6 µM,1.54 µM,3.43 µM,0.591 µM,2.92 µM,0.995 µM,3.68 µM,1.98 µM,6.85 µM,2.62 µM,8.76 µM,2.06 µM,5.82 µM,0.847 µM,2.36 µM,1.44 µM,4.89 µM,0.532 µM,2.28 µM
OCc1ccc(N(Cc2ccc(F)cc2)CC2CCC2)cc1Cl,0.705 µM,3.65 µM,12.3 µM,25.8 µM,12.4 µM,25.3 µM,11.8 µM,24.8 µM,15.1 µM,36 µM,12.8 µM,28 µM,1.13 µM,4.25 µM,16.3 µM,31.8 µM,13.7 µM,33.4 µM,3.17 µM,15 µM
Cc1[nH]n(-c2cccc(Cl)c2)c(=O)c1/C=C1\C=c2ccccc2=CC1=O,35 µM,> 100 µM,21.5 µM,86.6 µM,0.927 µM,32.7 µM,> 100 µM,> 100 µM,97.5 µM,> 100 µM,> 100 µM,> 100 µM,> 100 µM,> 100 µM,29.2 µM,> 100 µM,> 100 µM,> 100 µM,> 100 µM,> 100 µM
c1cc2c(c(NC3=NCCN3)c1)CCCC2,–,> 100 µM,–,> 100 µM,–,> 100 µM,–,> 100 µM,–,> 100 µM,–,> 100 µM,–,> 100 µM,–,> 100 µM,–,> 100 µM,–,> 100 µM
Fc1ccc(-c2c(-c3ccncc3)[nH]c3nccnc23)cc1,5.94 µM,> 21.6 µM,11.3 µM,> 25 µM,2.66 µM,> 25 µM,> 25 µM,> 25 µM,24.6 µM,> 25 µM,16.1 µM,> 25 µM,11.2 µM,> 25 µM,> 9.39 µM,> 17.4 µM,> 25 µM,> 25 µM,7.11 µM,> 21.3 µM
CNCCN(C)Cc1cn[nH]c1-c1ccc(OC2CC(OCCC3CCOCC3)C2)cc1 (stereo not drawn),> 100 µM,> 100 µM,> 100 µM,> 100 µM,38.2 µM,> 100 µM,> 63.4 µM,> 100 µM,> 100 µM,> 100 µM,> 100 µM,> 100 µM,> 100 µM,> 100 µM,28.4 µM,> 100 µM,> 80.2 µM,> 100 µM,97.9 µM,> 100 µM
N=C1/C(=C2\Nc3ccccc3S2)CC(=O)N1c1ccc(SC(F)F)cc1,22 µM,> 100 µM,3.23 µM,> 100 µM,0.17 µM,1.15 µM,3.55 µM,93.5 µM,0.839 µM,> 100 µM,6.52 µM,> 100 µM,8.88 µM,79.4 µM,> 100 µM,> 100 µM,1.42 µM,> 100 µM,0.81 µM,30.9 µM
